# ChEMBL document CHEMBL4627246, “Pyroglutamide-Based P2X7 Receptor Antagonists Targeting Inflammatory Bowel Disease” (J Med Chem, 2020)
# System: TK-10
# Test: Cytotoxicity against human TK10 cells assessed as effect on cell growth at 10 uM incubated for 48 hrs by sulforhodamine B assay
# Assay type: cell-based
# Settings: tk-10, 48 h
row,Structure (SMILES),Activity
1,O=C1N[C@H](C(=O)NCc2ccc(Cl)cc2Cl)CO1,Non-Toxic
2,CN1CCN(/C=C2\C[C@@H](C(=O)NCc3ccc(Cl)cc3Cl)N(c3cccs3)C2=O)CC1,Non-Toxic
3,N#Cc1ccc(N2C(=O)CC[C@H]2C(=O)NCc2ccc(Cl)cc2Cl)cc1,Non-Toxic
4,O=C(NCc1ccc(Cl)cc1Cl)[C@@H]1COC(=O)N1c1cccs1,Non-Toxic

# System: MDA-MB-468
# Test: Cytotoxicity against human MDA-MB-468 cells assessed as effect on cell growth at 10 uM incubated for 48 hrs by sulforhodamine B assay
# Assay type: cell-based
# Settings: mda-mb-468, 48 h
row,Structure (SMILES),Activity
1,O=C1N[C@H](C(=O)NCc2ccc(Cl)cc2Cl)CO1,Non-Toxic
2,CN1CCN(/C=C2\C[C@@H](C(=O)NCc3ccc(Cl)cc3Cl)N(c3cccs3)C2=O)CC1,Non-Toxic
3,N#Cc1ccc(N2C(=O)CC[C@H]2C(=O)NCc2ccc(Cl)cc2Cl)cc1,Non-Toxic
4,O=C(NCc1ccc(Cl)cc1Cl)[C@@H]1COC(=O)N1c1cccs1,Non-Toxic

# System: HCC 2998
# Test: Cytotoxicity against human HCC2998 cells assessed as effect on cell growth at 10 uM incubated for 48 hrs by sulforhodamine B assay
# Assay type: cell-based
# Settings: hcc 2998, 48 h
row,Structure (SMILES),Activity
1,O=C1N[C@H](C(=O)NCc2ccc(Cl)cc2Cl)CO1,Non-Toxic
2,CN1CCN(/C=C2\C[C@@H](C(=O)NCc3ccc(Cl)cc3Cl)N(c3cccs3)C2=O)CC1,Non-Toxic
3,N#Cc1ccc(N2C(=O)CC[C@H]2C(=O)NCc2ccc(Cl)cc2Cl)cc1,Non-Toxic
4,O=C(NCc1ccc(Cl)cc1Cl)[C@@H]1COC(=O)N1c1cccs1,Non-Toxic

# System: PC-3
# Test: Cytotoxicity against human PC3 cells assessed as effect on cell growth at 10 uM incubated for 48 hrs by sulforhodamine B assay
# Assay type: cell-based
# Settings: pc-3, 48 h
row,Structure (SMILES),Activity
1,O=C1N[C@H](C(=O)NCc2ccc(Cl)cc2Cl)CO1,Non-Toxic
2,CN1CCN(/C=C2\C[C@@H](C(=O)NCc3ccc(Cl)cc3Cl)N(c3cccs3)C2=O)CC1,Non-Toxic
3,N#Cc1ccc(N2C(=O)CC[C@H]2C(=O)NCc2ccc(Cl)cc2Cl)cc1,Non-Toxic
4,O=C(NCc1ccc(Cl)cc1Cl)[C@@H]1COC(=O)N1c1cccs1,Non-Toxic

# System: HCT-116
# Test: Cytotoxicity against human HCT116 cells assessed as effect on cell growth at 10 uM incubated for 48 hrs by sulforhodamine B assay
# Assay type: cell-based
# Settings: hct-116, 48 h
row,Structure (SMILES),Activity
1,O=C1N[C@H](C(=O)NCc2ccc(Cl)cc2Cl)CO1,Non-Toxic
2,CN1CCN(/C=C2\C[C@@H](C(=O)NCc3ccc(Cl)cc3Cl)N(c3cccs3)C2=O)CC1,Non-Toxic
3,N#Cc1ccc(N2C(=O)CC[C@H]2C(=O)NCc2ccc(Cl)cc2Cl)cc1,Non-Toxic
4,O=C(NCc1ccc(Cl)cc1Cl)[C@@H]1COC(=O)N1c1cccs1,Non-Toxic

# System: NCI-H322M
# Test: Cytotoxicity against human NCI-H322M cells assessed as effect on cell growth at 10 uM incubated for 48 hrs by sulforhodamine B assay
# Assay type: cell-based
# Settings: not given
row,Structure (SMILES),Activity
1,O=C1N[C@H](C(=O)NCc2ccc(Cl)cc2Cl)CO1,Non-Toxic
2,CN1CCN(/C=C2\C[C@@H](C(=O)NCc3ccc(Cl)cc3Cl)N(c3cccs3)C2=O)CC1,Non-Toxic
3,N#Cc1ccc(N2C(=O)CC[C@H]2C(=O)NCc2ccc(Cl)cc2Cl)cc1,Non-Toxic
4,O=C(NCc1ccc(Cl)cc1Cl)[C@@H]1COC(=O)N1c1cccs1,Non-Toxic

# System: U-251
# Test: Cytotoxicity against human U251 cells assessed as effect on cell growth at 10 uM incubated for 48 hrs by sulforhodamine B assay
# Assay type: cell-based
# Settings: u-251, 48 h
row,Structure (SMILES),Activity
1,O=C1N[C@H](C(=O)NCc2ccc(Cl)cc2Cl)CO1,Non-Toxic
2,CN1CCN(/C=C2\C[C@@H](C(=O)NCc3ccc(Cl)cc3Cl)N(c3cccs3)C2=O)CC1,Non-Toxic
3,N#Cc1ccc(N2C(=O)CC[C@H]2C(=O)NCc2ccc(Cl)cc2Cl)cc1,Non-Toxic
4,O=C(NCc1ccc(Cl)cc1Cl)[C@@H]1COC(=O)N1c1cccs1,Non-Toxic

# System: HT-29
# Test: Cytotoxicity against human HT-29 cells assessed as effect on cell growth at 10 uM incubated for 48 hrs by sulforhodamine B assay
# Assay type: cell-based
# Settings: ht-29, 48 h
row,Structure (SMILES),Activity
1,O=C1N[C@H](C(=O)NCc2ccc(Cl)cc2Cl)CO1,Non-Toxic
2,CN1CCN(/C=C2\C[C@@H](C(=O)NCc3ccc(Cl)cc3Cl)N(c3cccs3)C2=O)CC1,Non-Toxic
3,N#Cc1ccc(N2C(=O)CC[C@H]2C(=O)NCc2ccc(Cl)cc2Cl)cc1,Non-Toxic
4,O=C(NCc1ccc(Cl)cc1Cl)[C@@H]1COC(=O)N1c1cccs1,Non-Toxic

# System: COLO 205
# Test: Cytotoxicity against human COLO205 cells assessed as effect on cell growth at 10 uM incubated for 48 hrs by sulforhodamine B assay
# Assay type: cell-based
# Settings: colo 205, 48 h
row,Structure (SMILES),Activity
1,O=C1N[C@H](C(=O)NCc2ccc(Cl)cc2Cl)CO1,Non-Toxic
2,CN1CCN(/C=C2\C[C@@H](C(=O)NCc3ccc(Cl)cc3Cl)N(c3cccs3)C2=O)CC1,Non-Toxic
3,N#Cc1ccc(N2C(=O)CC[C@H]2C(=O)NCc2ccc(Cl)cc2Cl)cc1,Non-Toxic
4,O=C(NCc1ccc(Cl)cc1Cl)[C@@H]1COC(=O)N1c1cccs1,Non-Toxic

# System: NCI/ADR-RES
# Test: Cytotoxicity against human NCI/ADR-RES cells assessed as effect on cell growth at 10 uM incubated for 48 hrs by sulforhodamine B assay
# Assay type: cell-based
# Settings: not given
row,Structure (SMILES),Activity
1,O=C1N[C@H](C(=O)NCc2ccc(Cl)cc2Cl)CO1,Non-Toxic
2,CN1CCN(/C=C2\C[C@@H](C(=O)NCc3ccc(Cl)cc3Cl)N(c3cccs3)C2=O)CC1,Non-Toxic
3,N#Cc1ccc(N2C(=O)CC[C@H]2C(=O)NCc2ccc(Cl)cc2Cl)cc1,Non-Toxic
4,O=C(NCc1ccc(Cl)cc1Cl)[C@@H]1COC(=O)N1c1cccs1,Non-Toxic

# System: NCI-H23
# Test: Cytotoxicity against human NCI-H23 cells assessed as effect on cell growth at 10 uM incubated for 48 hrs by sulforhodamine B assay
# Assay type: cell-based
# Settings: nci-h23, 48 h
row,Structure (SMILES),Activity
1,O=C1N[C@H](C(=O)NCc2ccc(Cl)cc2Cl)CO1,Non-Toxic
2,CN1CCN(/C=C2\C[C@@H](C(=O)NCc3ccc(Cl)cc3Cl)N(c3cccs3)C2=O)CC1,Non-Toxic
3,N#Cc1ccc(N2C(=O)CC[C@H]2C(=O)NCc2ccc(Cl)cc2Cl)cc1,Non-Toxic
4,O=C(NCc1ccc(Cl)cc1Cl)[C@@H]1COC(=O)N1c1cccs1,Non-Toxic

# System: HOP-92
# Test: Cytotoxicity against human HOP92 cells assessed as effect on cell growth at 10 uM incubated for 48 hrs by sulforhodamine B assay
# Assay type: cell-based
# Settings: hop-92, 48 h
row,Structure (SMILES),Activity
1,O=C1N[C@H](C(=O)NCc2ccc(Cl)cc2Cl)CO1,Non-Toxic
2,CN1CCN(/C=C2\C[C@@H](C(=O)NCc3ccc(Cl)cc3Cl)N(c3cccs3)C2=O)CC1,Non-Toxic
3,N#Cc1ccc(N2C(=O)CC[C@H]2C(=O)NCc2ccc(Cl)cc2Cl)cc1,Non-Toxic
4,O=C(NCc1ccc(Cl)cc1Cl)[C@@H]1COC(=O)N1c1cccs1,Non-Toxic

# System: NCI-H522
# Test: Cytotoxicity against human NCI-H522 cells assessed as effect on cell growth at 10 uM incubated for 48 hrs by sulforhodamine B assay
# Assay type: cell-based
# Settings: nci-h522, 48 h
row,Structure (SMILES),Activity
1,O=C1N[C@H](C(=O)NCc2ccc(Cl)cc2Cl)CO1,Non-Toxic
2,CN1CCN(/C=C2\C[C@@H](C(=O)NCc3ccc(Cl)cc3Cl)N(c3cccs3)C2=O)CC1,Non-Toxic
3,N#Cc1ccc(N2C(=O)CC[C@H]2C(=O)NCc2ccc(Cl)cc2Cl)cc1,Non-Toxic
4,O=C(NCc1ccc(Cl)cc1Cl)[C@@H]1COC(=O)N1c1cccs1,Non-Toxic

# System: OVCAR-8
# Test: Cytotoxicity against human OVCAR8 cells assessed as effect on cell growth at 10 uM incubated for 48 hrs by sulforhodamine B assay
# Assay type: cell-based
# Settings: ovcar-8, 48 h
row,Structure (SMILES),Activity
1,O=C1N[C@H](C(=O)NCc2ccc(Cl)cc2Cl)CO1,Non-Toxic
2,CN1CCN(/C=C2\C[C@@H](C(=O)NCc3ccc(Cl)cc3Cl)N(c3cccs3)C2=O)CC1,Non-Toxic
3,N#Cc1ccc(N2C(=O)CC[C@H]2C(=O)NCc2ccc(Cl)cc2Cl)cc1,Non-Toxic
4,O=C(NCc1ccc(Cl)cc1Cl)[C@@H]1COC(=O)N1c1cccs1,Non-Toxic

# System: SNB-19
# Test: Cytotoxicity against human SNB19 cells assessed as effect on cell growth at 10 uM incubated for 48 hrs by sulforhodamine B assay
# Assay type: cell-based
# Settings: snb-19, 48 h
row,Structure (SMILES),Activity
1,O=C1N[C@H](C(=O)NCc2ccc(Cl)cc2Cl)CO1,Non-Toxic
2,CN1CCN(/C=C2\C[C@@H](C(=O)NCc3ccc(Cl)cc3Cl)N(c3cccs3)C2=O)CC1,Non-Toxic
3,N#Cc1ccc(N2C(=O)CC[C@H]2C(=O)NCc2ccc(Cl)cc2Cl)cc1,Non-Toxic
4,O=C(NCc1ccc(Cl)cc1Cl)[C@@H]1COC(=O)N1c1cccs1,Non-Toxic

# System: UACC-62
# Test: Cytotoxicity against human UACC62 cells assessed as effect on cell growth at 10 uM incubated for 48 hrs by sulforhodamine B assay
# Assay type: cell-based
# Settings: uacc-62, 48 h
row,Structure (SMILES),Activity
1,O=C1N[C@H](C(=O)NCc2ccc(Cl)cc2Cl)CO1,Non-Toxic
2,CN1CCN(/C=C2\C[C@@H](C(=O)NCc3ccc(Cl)cc3Cl)N(c3cccs3)C2=O)CC1,Non-Toxic
3,N#Cc1ccc(N2C(=O)CC[C@H]2C(=O)NCc2ccc(Cl)cc2Cl)cc1,Non-Toxic
4,O=C(NCc1ccc(Cl)cc1Cl)[C@@H]1COC(=O)N1c1cccs1,Non-Toxic

# System: IGROV-1
# Test: Cytotoxicity against human IGROV1 cells assessed as effect on cell growth at 10 uM incubated for 48 hrs by sulforhodamine B assay
# Assay type: cell-based
# Settings: igrov-1, 48 h
row,Structure (SMILES),Activity
1,O=C1N[C@H](C(=O)NCc2ccc(Cl)cc2Cl)CO1,Non-Toxic
2,CN1CCN(/C=C2\C[C@@H](C(=O)NCc3ccc(Cl)cc3Cl)N(c3cccs3)C2=O)CC1,Non-Toxic
3,N#Cc1ccc(N2C(=O)CC[C@H]2C(=O)NCc2ccc(Cl)cc2Cl)cc1,Non-Toxic
4,O=C(NCc1ccc(Cl)cc1Cl)[C@@H]1COC(=O)N1c1cccs1,Non-Toxic

# System: T47D
# Test: Cytotoxicity against human T47D cells assessed as effect on cell growth at 10 uM incubated for 48 hrs by sulforhodamine B assay
# Assay type: cell-based
# Settings: not given
row,Structure (SMILES),Activity
1,O=C1N[C@H](C(=O)NCc2ccc(Cl)cc2Cl)CO1,Non-Toxic
2,CN1CCN(/C=C2\C[C@@H](C(=O)NCc3ccc(Cl)cc3Cl)N(c3cccs3)C2=O)CC1,Non-Toxic
3,N#Cc1ccc(N2C(=O)CC[C@H]2C(=O)NCc2ccc(Cl)cc2Cl)cc1,Non-Toxic
4,O=C(NCc1ccc(Cl)cc1Cl)[C@@H]1COC(=O)N1c1cccs1,Non-Toxic

# System: SNB-75
# Test: Cytotoxicity against human SNB75 cells assessed as effect on cell growth at 10 uM incubated for 48 hrs by sulforhodamine B assay
# Assay type: cell-based
# Settings: snb-75, 48 h
row,Structure (SMILES),Activity
1,O=C1N[C@H](C(=O)NCc2ccc(Cl)cc2Cl)CO1,Non-Toxic
2,CN1CCN(/C=C2\C[C@@H](C(=O)NCc3ccc(Cl)cc3Cl)N(c3cccs3)C2=O)CC1,Non-Toxic
3,N#Cc1ccc(N2C(=O)CC[C@H]2C(=O)NCc2ccc(Cl)cc2Cl)cc1,Non-Toxic
4,O=C(NCc1ccc(Cl)cc1Cl)[C@@H]1COC(=O)N1c1cccs1,Non-Toxic

# System: Malme-3M
# Test: Cytotoxicity against human MALME-3M cells assessed as effect on cell growth at 10 uM incubated for 48 hrs by sulforhodamine B assay
# Assay type: cell-based
# Settings: not given
row,Structure (SMILES),Activity
1,O=C1N[C@H](C(=O)NCc2ccc(Cl)cc2Cl)CO1,Non-Toxic
2,CN1CCN(/C=C2\C[C@@H](C(=O)NCc3ccc(Cl)cc3Cl)N(c3cccs3)C2=O)CC1,Non-Toxic
3,N#Cc1ccc(N2C(=O)CC[C@H]2C(=O)NCc2ccc(Cl)cc2Cl)cc1,Non-Toxic
4,O=C(NCc1ccc(Cl)cc1Cl)[C@@H]1COC(=O)N1c1cccs1,Non-Toxic
